Data taken from patent US9549554B2, “Insecticidal synergistic combinations of phthaldiamide derivatives and abamectin, emamectin, lepimectin or milbemectin” (BAYER CROPSCIENCE AKTIENGESELLSCHAFT, priority 2013, dated 2017).

What was measured:
[1] = test system: Phaedon cochleariae; assay: Phaedon cochleariae spray test (Chinese cabbage leaf disks); format: in vivo; settings: mustard beetle larvae
From the text: Solvent: 78.0 parts by weight of acetone
• 1.5 parts by weight of dimethylformamide Emulsifier: 0.5 parts by weight of alkylaryl polyglycolether
Once dry, the leaf disks are infested with mustard beetle larvae (Phaedon cochleariae).
100% means all beetle larvae have been killed and 0% means none of the beetle larvae have been killed.

[2] = test system: Spodoptera frugiperda; assay: whole plant or invertebrate
Method: Solvent: 78.0 parts by weight acetone
• 1.5 parts by weight dimethylformamide Emulsifier: 0.5 parts by weight alkylarylpolyglycolether
To produce a suitable preparation of a spore suspension the spores are diluted with emulsifier-containing water to the desired concentration.
Maize (Zea mais) leaf sections are sprayed with a preparation of the active ingredient of the desired concentration. Once dry, the leaf sections are infested with fall armyworm larvae (Spodoptera frugiperda).
After the specified period of time, mortality in % is determined. 100% means all caterpillars have been killed and 0% means none of the caterpillars have been killed. The mortality values determined thus are recalculated using the Colby-formula (see sheet 1).

[3] = test system: Myzus persicae; assay: Myzus persicae spray test (infested cabbage leaves); format: in vivo; settings: green peach aphid
Method: Solvent: 7 parts by weight of dimethylformamide
Emulsifier: alkylaryl polyglycolether
Further test concentrations are prepared by dilution with emulsifier containing water Ammonium salt and/or penetration enhancer in a dosage of 1000 ppm are added to the desired concentration if necessary.
Cabbage leaves (Brassica oleracea) which are heavily infested by the green peach aphid (Myzus persicae) are treated by being sprayed with the preparation of the active compound of the desired concentration.

[4] = Spodoptera frugiperda, in Zea mays, 144 h, read-out: Efficacy in % after 6d (mortality)

For “Abamectin [Abamectin (II-1), reference compound]”, the “Efficacy in % after 6d (mortality)” value ([1]; 0.032 g ai/ha) was 0% and the “Efficacy in % after 6d (mortality)” value ([2]; 15 g ai/ha, fall armyworm larvae, after 6 d) was 0%.

For “Emamectin benzoate [Emamectin-Benzoate, reference compound]”, the “Efficacy in % after 6d (mortality)” value ([3]; 15 ppm) was 15%.

Work on Cc1cc(C(F)(C(F)(F)F)C(F)(F)F)ccc1NC(=O)c1cccc(Cl)c1C(=O)NC(C)(C)C#N [(I-5)] yielded a mortality at 4 g/ha ([1]; Phaedon cochleariae, foliar, 144 h, 4 g ai/ha, after 6 d, read-out: Efficacy in % after 6d (mortality)) of 0%, a mortality at 0.25 g/ha [2, 4] of 0% and a mortality at 3 g/ha [2, 4] of 33%. It also gave a mortality at 3 ppm ([3]; Myzus persicae, 144 h, 3 ppm, after 6 d, read-out: Efficacy in % after 6d (mortality)) of 0% and a mortality at 75 ppm ([3]; Myzus persicae, 144 h, 75 ppm, after 6 d, read-out: Efficacy in % after 6d (mortality)) of 0%.
